The results in this text go back to ChEMBL document CHEMBL5113466, “Design, synthesis, and bioactivity evaluation of macrocyclic benzo[b]pyrido[4,3-e][1,4]oxazine derivatives as novel Pim-1 kinase inhibitors” (Bioorg Med Chem Lett, 2022).

In assay [1] the target is Serine/threonine-protein kinase pim-1 (Homo sapiens, UniProt P11309). The assay is described as follows: Inhibition of Pim-1 (unknown origin) measured by ADP-Glo kinase assay. In general terms: ADP-Glo first removes unused ATP, then detects ADP through luciferase.
For the next assay, the system named is MDA-MB-231. The assay can be described thus: Antiproliferative activity against human […] cells measured by cell viability assay. It counts as functional, cell-based.

A word on the IC50: it is the midpoint of a concentration-inhibition curve. Lower therefore signals higher potency.

Each structure is given as a SMILES string.

Chain of Serine/threonine-protein kinase pim-1 (P11309 whole entry): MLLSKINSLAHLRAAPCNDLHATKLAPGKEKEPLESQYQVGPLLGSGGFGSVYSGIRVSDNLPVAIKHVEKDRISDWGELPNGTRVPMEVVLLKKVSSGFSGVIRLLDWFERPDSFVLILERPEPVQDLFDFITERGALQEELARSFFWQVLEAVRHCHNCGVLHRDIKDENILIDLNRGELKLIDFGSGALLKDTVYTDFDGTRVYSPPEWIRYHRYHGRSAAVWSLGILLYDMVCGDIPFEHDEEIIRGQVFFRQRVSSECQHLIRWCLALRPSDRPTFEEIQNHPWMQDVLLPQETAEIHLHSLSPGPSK

Turning to `c1cc2c(cn1)Oc1ccc3cc1N2CCCCCNCCOCCO3`, the IC50 worked out at 0.14 µM in assay [1] and 25.9 µM with MDA-MB-231.
In the same order, the values of `c1cc2c(cn1)Oc1ccc3cc1N2CCOCCNCCCCO3` are 0.467 µM and 44 µM.
In the same order, the values of `c1cc2c(cn1)Oc1ccc3cc1N2CCOCCNCCCCCO3` are 2.19 µM and 35.4 µM.
In the same order, the values of `c1cc2c(cn1)Oc1ccc3cc1N2CCCCNCCCCCO3` are 0.27 µM and 16.3 µM.
For the compound `c1cc2c(cn1)Oc1ccc3cc1N2CCCCNCCCCO3`, the IC50 in assay [1] turned out to be 0.434 µM; with MDA-MB-231 it was 19 µM.
Regarding `c1cc2c(cn1)Oc1ccc3cc1N2CCCCNCCOCCO3`, the IC50 in assay [1] amounted to 0.176 µM; in the assay with MDA-MB-231, 12.3 µM.
In the same order, the values of `c1cc2c(cn1)Oc1ccc3cc1N2CCCCCNCCCCO3` are 0.0351 µM and 8.15 µM.
Consider `c1cc2c(cn1)Oc1ccc3cc1N2CCOCCNCCCO3`, for which the values for the IC50 (in assay [1]; in the assay with MDA-MB-231) were 0.881 µM and 30 µM, respectively.
With `c1cc2c(cn1)Oc1ccc3cc1N2CCCNCCOCCO3`, the 50% inhibitory concentration (IC50) in assay [1] was 0.0573 µM; in the assay on MDA-MB-231 it was 19.5 µM.
